According to patent publication US6750009B2 (priority 2002, dated 2004):
Several values for one entry are separate records, joined by “and”; a condition that tells them apart may be missing. Equal entries are not always repeated. Where two headings read alike, the source gives them in different places.

Experiments:
[1] = tested on: RSV minigenome; format: cell-based, Respiratory syncytia virus (RSV)
[2] = tested on: RSV minigenome; format: cell-based, Respiratory syncytia virus (RSV); remark: listed apart in the source
[3] = tested on: Sindbis replicon; format: cell-based, Sindbis virus; settings: for Sindbis Mixed Viral Replicon Culture % of Control (ave): Table 3
[4] = tested on: HCV replicon; format: cell-based, hepatitis C virus
[5] = tested on: YFR replicon; format: cell-based, yellow fever virus; settings: for YFR Mixed Viral Replicon Culture % of Control (ave): co-cultured HCV/Sindbis/YFR replicons

NC(=O)c1ncn([C@@H]2O[C@H](CO)[C@@H](O)[C@H]2O)n1 [Ribavirin, ribavirin]
RSV Mixed Viral Culture % of Control (ave) ([1]; Ribavirin 0.5 μ/ml): 96.16 % of Control
RSV Mixed Viral Culture % of Control (ave) ([1]; Ribavirin 1 μ/ml): 44.14 % of Control
RSV Mixed Viral Culture % of Control (ave) ([1]; Ribavirin 10 μ/ml): 42.42 % of Control
RSV Mixed Viral Culture % of Control (ave) ([1]; Ribavirin 100 μ/ml): 13.90 % of Control
RSV Single Viral Culture % of Control (ave) ([2]; Ribavirin 0.5 μ/ml): 97.31 % of Control
RSV Single Viral Culture % of Control (ave) ([2]; Ribavirin 1 μ/ml): 17.86 % of Control
RSV Single Viral Culture % of Control (ave) ([2]; Ribavirin 10 μ/ml): 3.74 % of Control
RSV Single Viral Culture % of Control (ave) ([2]; Ribavirin 100 μ/ml): 2.82 % of Control
effect on Sindbis replicon replication [3]: did inhibit
Sindbis Mixed Viral Replicon Culture % of Control (ave) ([3]; Ribavirin 0.5 μg/ml): 40.54 % of Control
Sindbis Mixed Viral Replicon Culture % of Control (ave) ([3]; Ribavirin 1 μg/ml): 62.98 % of Control
Sindbis Mixed Viral Replicon Culture % of Control (ave) ([3]; Ribavirin 10 μg/ml): 35.04 % of Control
Sindbis Mixed Viral Replicon Culture % of Control (ave) ([3]; Ribavirin 100 μg/ml): 18.11 % of Control
HCV Mixed Viral Replicon Culture % of Control (ave) [4]: 100.37 % of Control and 101.51 % of Control and 99.75 % of Control and 110.22 % of Control
effect on HCV replication [4]: no effect

α-interferon [IFNα]
RSV Mixed Viral Culture % of Control (ave) ([1]; IFN-α 100 Units/ml): 84.30 % of Control
RSV Mixed Viral Culture % of Control (ave) ([1]; IFN-α 1000 Units/ml): 77.80 % of Control
RSV Single Viral Culture % of Control (ave) ([2]; IFN-α 100 Units/ml): 84.30 % of Control
RSV Single Viral Culture % of Control (ave) ([2]; IFN-α 1000 Units/ml): 47.29 % of Control
inhibition of Sindbis replicon [3]: > 98%
inhibition of HCV replicon [4]: > 91%
inhibition of YFR replicon ([5]; 100 u/ml IFNα, mixed viral replicon culture): > 81%
YFR Mixed Viral Replicon Culture % of Control (ave) ([5]; IFNα 1 Units/ml): 41.47 % of Control
YFR Mixed Viral Replicon Culture % of Control (ave) ([5]; IFNα 10 Units/ml): 26.09 % of Control
YFR Mixed Viral Replicon Culture % of Control (ave) ([5]; IFNα 100 Units/ml): 18.64 % of Control
